Assay results published in patent publication US5631230A, “Receptor selective analogues of cholecystokinin-8” (priority 1994, dated 1997).
Non-standard residues stand in square brackets, D forms with d. Residues, ends and D or L forms follow the SMILES beside them. *: point of attachment. sY = N[C@@H](Cc1ccc(OS(=O)(=O)O)cc1)C(=O)O; X1 = O=C(O)C[C@H](NS(=O)(=O)O)C(=O)*; NMeNle = CCCC[C@H](NC)C(=O)O; Nle = CCCC[C@H](N)C(=O)O

What was measured:
[1] = biological target: T1, [^125 I] CCK-8 binding sites (CCK receptor), Guinea Pig Pancreas (Cavia porcellus, UniProt Q63931); assay: Inhibition of [125I] CCK-8 binding, guinea pig pancreas; conditions: read-out: Guinea Pig Pancreas IV50
T1 construct: from tissue; host or cells: guinea pig pancreas
T1 sequence (Q63931 1-430): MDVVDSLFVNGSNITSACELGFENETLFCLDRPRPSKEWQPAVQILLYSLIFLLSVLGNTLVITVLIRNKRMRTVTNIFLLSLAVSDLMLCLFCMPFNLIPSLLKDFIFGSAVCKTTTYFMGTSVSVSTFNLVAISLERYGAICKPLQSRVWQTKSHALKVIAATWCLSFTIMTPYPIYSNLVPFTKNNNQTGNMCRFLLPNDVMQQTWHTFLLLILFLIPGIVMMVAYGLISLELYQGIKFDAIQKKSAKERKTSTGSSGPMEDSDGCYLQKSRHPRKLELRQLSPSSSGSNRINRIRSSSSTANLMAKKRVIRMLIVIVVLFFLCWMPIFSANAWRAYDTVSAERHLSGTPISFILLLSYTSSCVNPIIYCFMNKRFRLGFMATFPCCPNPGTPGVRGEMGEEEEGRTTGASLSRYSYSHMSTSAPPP

[2] = system: [^125 I] CCK-8 binding sites (CCK receptor), Guinea Pig Brain; assay: Inhibition of [125I] CCK-8 binding, guinea pig brain; conditions: for Ratio Pancreas/Brain (Guinea Pig): value in brackets, IC50 pancreas / IC50 brain; for IC50: inhibition of [125I] CCK-8 binding, guinea pig brain
[3] = biological target: T2, [^125 I] CCK-8 binding sites (CCK receptor), Rat Brain (Rattus norvegicus, UniProt P30553); assay: Inhibition of [125I] CCK-8 binding, rat brain; conditions: for Ratio Pancreas/Brain Rat: IC50 pancreas / IC50 brain
T2 construct: from tissue; host or cells: rat brain
T2 sequence (P30553 1-452): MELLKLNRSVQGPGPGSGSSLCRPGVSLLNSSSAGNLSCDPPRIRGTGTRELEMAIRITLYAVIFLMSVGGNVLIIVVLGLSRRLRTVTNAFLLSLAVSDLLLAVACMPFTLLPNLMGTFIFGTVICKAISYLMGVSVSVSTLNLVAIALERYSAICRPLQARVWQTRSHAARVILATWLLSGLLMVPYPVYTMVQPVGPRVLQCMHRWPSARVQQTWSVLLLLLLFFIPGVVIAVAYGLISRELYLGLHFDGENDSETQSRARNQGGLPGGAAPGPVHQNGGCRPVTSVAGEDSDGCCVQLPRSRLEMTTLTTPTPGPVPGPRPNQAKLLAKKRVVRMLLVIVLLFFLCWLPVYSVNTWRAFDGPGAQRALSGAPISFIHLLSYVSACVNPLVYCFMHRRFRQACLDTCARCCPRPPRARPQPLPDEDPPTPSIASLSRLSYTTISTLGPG

[4] = biological target: T3, [^125 I] CCK-8 binding sites (CCK receptor), Rat Pancreas (Rattus norvegicus, UniProt P30551); assay: Inhibition of [125I] CCK-8 binding, rat pancreas
T3 construct: from tissue; host or cells: rat pancreas
T3 sequence (P30551 1-444): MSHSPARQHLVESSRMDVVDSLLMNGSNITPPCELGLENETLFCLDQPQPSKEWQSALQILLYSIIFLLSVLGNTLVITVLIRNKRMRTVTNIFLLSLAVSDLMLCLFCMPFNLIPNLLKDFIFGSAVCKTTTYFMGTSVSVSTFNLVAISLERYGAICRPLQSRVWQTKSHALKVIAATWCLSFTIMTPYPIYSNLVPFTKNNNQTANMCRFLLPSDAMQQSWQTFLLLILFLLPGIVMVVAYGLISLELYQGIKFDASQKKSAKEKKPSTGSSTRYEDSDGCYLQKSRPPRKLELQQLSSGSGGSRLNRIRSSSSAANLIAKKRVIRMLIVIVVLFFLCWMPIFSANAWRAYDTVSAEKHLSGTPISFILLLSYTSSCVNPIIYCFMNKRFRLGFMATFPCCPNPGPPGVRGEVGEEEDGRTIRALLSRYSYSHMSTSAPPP

Row | IC50 [1] | Ratio Pancreas/Brain (Guinea Pig) [2] | IC50 [2] | IC50 [3] | Ratio Pancreas/Brain Rat [3] | IC50 [4] | SMILES
1 | 958 nM | 4146 | 0.23 nM | 0.131 nM | 7,863 | 1030 nM | CCCC[C@@H](C(=O)N[C@@H](CC(=O)O)C(=O)N[C@@H](Cc1ccccc1)C(N)=O)N(C)C(=O)[C@H](Cc1c[nH]c2ccccc12)NC(=O)CNC(=O)[C@H](CCCC)N(C)C(=O)[C@H](Cc1ccc(O)cc1)NC(=O)[C@@H](N)CC(=O)O [Compound 2, H-Asp-Tyr-N-MeNle-Gly-Trp-N-MeNle-Asp-Phe-NH2]
2 |  |  |  | 976 nM | 0.17 | 170 nM | CCCC[C@H](NC(=O)[C@H](Cc1ccc(O)cc1)NC(=O)[C@@H](N)CC(=O)O)C(=O)NCC(=O)N[C@@H](Cc1c[nH]c2ccccc12)C(=O)N(C)[C@@H](CCCC)C(=O)N[C@@H](CC(=O)O)C(=O)N[C@@H](Cc1ccccc1)C(N)=O [Compound 5, H-Asp-Tyr-Nle-Gly-Trp-N-MeNle-AsP-Phe-NH2]
3 |  |  |  |  | 33.46 |  | CCCC[C@H](NC(=O)[C@H](Cc1c[nH]c2ccccc12)NC(=O)CNC(=O)[C@@H](NC(=O)[C@H](Cc1ccc(OS(=O)(=O)O)cc1)NC(=O)[C@H](CC(=O)O)NS(=O)(=O)O)C(C)C)C(=O)N[C@@H](CC(=O)O)C(=O)N[C@@H](Cc1ccccc1)C(N)=O [Compound 11, H-Asp-Tyr-Val-Gly-Trp-Nle-Asp-Phe-NH2 Bis-SO3 θ] (X1-[sY]VGW[Nle]DF-NH2; N-terminus and C-terminus assumed)
4 |  |  |  | 0.318 nM | 33.5 | 10.6 nM | CCCC[C@H](NC(=O)[C@H](Cc1c[nH]c2ccccc12)NC(=O)CNC(=O)[C@@H](NC(=O)[C@H](Cc1ccc(O)cc1)NC(=O)[C@@H](N)CC(=O)O)C(C)C)C(=O)N[C@@H](CC(=O)O)C(=O)N[C@@H](Cc1ccccc1)C(N)=O [Compound 6, H-Asp-Tyr-Val-Gly-Trp-Nle-Asp-Phe-NH2]
5 |  |  |  | 1.26 nM | 413 | 521 nM | CCCC[C@H](NC(=O)[C@H](Cc1c[nH]c2ccccc12)NC(=O)CNC(=O)[C@H](NC(=O)[C@H](Cc1ccc(O)cc1)NC(=O)[C@@H](N)CC(=O)O)C(C)C)C(=O)N[C@@H](CC(=O)O)C(=O)N[C@@H](Cc1ccccc1)C(N)=O [Compound 7, H-Asp-Tyr-D-Val-Gly-Trp-Nle-Asp-Phe-NH2]
6 | 29100 nM | 9099 | 3.19 nM |  |  |  | CCCC[C@H](NC(=O)[C@H](Cc1c[nH]c2ccccc12)NC(=O)CNC(=O)[C@H](CCCC)N(C)C(=O)[C@H](Cc1ccc(OS(=O)(=O)O)cc1)NC(=O)[C@H](CC(=O)O)NS(=O)(=O)O)C(=O)N[C@@H](CC(=O)O)C(=O)N[C@@H](Cc1ccccc1)C(N)=O [Compound 9, H-Asp-Tyr-N-MeNle-Gly-Trp-Nle-Asp-Phe-NH2 Bis-SO3 θ] (X1-[sY][NMeNle]GW[Nle]DF-NH2; N-terminus assumed)
7 |  |  |  | 1.41 nM | 0.29 | 0.46 nM | CCCC[C@@H](C(=O)N[C@@H](CC(=O)O)C(=O)N[C@@H](Cc1ccccc1)C(N)=O)N(C)C(=O)[C@H](Cc1c[nH]c2ccccc12)NC(=O)CNC(=O)[C@H](CCCC)N(C)C(=O)[C@H](Cc1ccc(OS(=O)(=O)O)cc1)NC(=O)[C@H](CC(=O)O)NS(=O)(=O)O [Compound 3, H-Asp-Tyr-N-MeNle-Gly-Trp-N-MeNle-Asp-Phe-NH2 Bis-SO3^θ] (X1-[sY][NMeNle]GW[NMeNle]DF-NH2; N-terminus assumed)
8 |  |  |  | 1.45 nM | 32.2 | 46.7 nM | CCCC[C@H](NC(=O)[C@H](Cc1c[nH]c2ccccc12)NC(=O)CNC(=O)[C@H](CCCC)N(C)C(=O)[C@H](Cc1ccc(O)cc1)NC(=O)[C@@H](N)CC(=O)O)C(=O)N[C@@H](CC(=O)O)C(=O)N[C@@H](Cc1ccccc1)C(N)=O [Compound 4, H-Asp-Tyr-N-MeNle-Gly-Trp-Nle-Asp-Phe-NH2]
9 |  |  |  |  | 39.5 |  | CCCC[C@H](NC(=O)[C@H](Cc1c[nH]c2ccccc12)NC(=O)CNC(=O)[C@H](NC(=O)[C@H](Cc1ccc(OS(=O)(=O)O)cc1)NC(=O)[C@H](CC(=O)O)NS(=O)(=O)O)C(C)C)C(=O)N[C@@H](CC(=O)O)C(=O)N[C@@H](Cc1ccccc1)C(N)=O [Compound 12, H-Asp-Tyr-D-Val-Gly-Trp-Nle-Asp-Phe-NH2 Bis-SO3 θ] (X1-[sY][dV]GW[Nle]DF-NH2; N-terminus and C-terminus assumed)
10 |  |  |  | 9.7 nM | 0.0010 | 0.975 nM | CCCC[C@H](NC(=O)[C@H](Cc1ccc(O)c(O)c1)NC(=O)[C@@H](N)CC(=O)O)C(=O)NCC(=O)N[C@@H](Cc1c[nH]c2ccccc12)C(=O)N[C@@H](CCCC)C(=O)N[C@@H](CC(=O)O)C(=O)N[C@@H](Cc1ccccc1)C(N)=O [Compound 8, H-Asp-Dopa-Nle-Gly-Trp-Nle-Asp-Phe-NH2]
11 |  |  |  | 0.496 nM | 2.81 | 1.39 nM | CCCC[C@H](NC(=O)[C@H](Cc1ccc(OS(=O)(=O)O)cc1)NC(=O)[C@H](CC(=O)O)NS(=O)(=O)O)C(=O)NCC(=O)N[C@@H](Cc1c[nH]c2ccccc12)C(=O)N(C)[C@@H](CCCC)C(=O)N[C@@H](CC(=O)O)C(=O)N[C@@H](Cc1ccccc1)C(N)=O [Compound 10, H-Asp-Tyr-Nle-Gly-Trp-N-MeNle-Asp-Phe-NH2 -Bis-SO3θ] (X1-[sY][Nle]GW[NMeNle]DF-NH2; N-terminus assumed)

Row | SMILES | IC50 [1] | Ratio Pancreas/Brain (Guinea Pig) [2] | IC50 [2] | IC50 [3] | Ratio Pancreas/Brain Rat [3] | IC50 [4]
12 | CSCC[C@H](NC(=O)[C@H](Cc1ccc(OS(=O)(=O)O)cc1)NC(=O)[C@@H](N)CC(=O)O)C(=O)NCC(=O)N[C@@H](Cc1c[nH]c2ccccc12)C(=O)N[C@@H](CCSC)C(=O)N[C@@H](CC(=O)O)C(=O)N[C@@H](Cc1ccccc1)C(N)=O [CCK-8, Asp-Tyr-(SO3^-)-Met-Gly-Trp-Met-Asp-Phe-NH2, reference compound] |  |  |  |  |  | 0.129 nM
13 | CCCC[C@@H](C(=O)N[C@@H](CC(=O)O)C(=O)N[C@@H](Cc1ccccc1)C(N)=O)N(C)C(=O)[C@H](Cc1c[nH]c2ccccc12)NC(=O)CN [Compound 1, H-Gly-Trp-N-MeNle-Asp-Phe-NH2] (H-GW[NMeNle]DF-NH2) | 8000 nM |  |  | 4.67 nM |  | > 10000 nM
